Legend:
[1] = tested on: Dd2-B2 TKL3KO parasites with PP1 H237D/V249L or URP E20* mutations; experiment: 72-h ABS assay, lines pulse-selected from ed. Dd2-B2 TKL3KO; assay type: cell-based; details: Plasmodium falciparum, parent ed. Dd2-B2 TKL3KO
Description: Synchronicity was achieved using three rounds of sorbitol treatment on early rings, spaced 48 h apart, followed by magnetic purification of segmented schizonts following the final sorbitol treatment. Parasites were highly synchronous to within a 3 h window of development. Assays were repeated on at least three independent occasions (each with technical duplicates) and statistical significance was assessed using Mann Whitney U tests.
The resulting MMV030084-resistant parasites were cloned by limiting dilution ([Baker et al., 2017]) to obtain genetically homogenous cultures for further phenotyping and whole-genome sequencing. A second round of […]. […] Drug susceptibility of resistant lines was assessed using a 72 h ABS assay as described above, and a Mann Whitney U test was applied to assess statistically significant differences.

[2] = tested on: phosphoproteome of Dd2-B2 Pf schizonts; experiment: Phosphoproteomics of Dd2-B2 schizonts exposed to 1200 nM MMV030084 for 3 h; assay type: cell-based, Plasmodium falciparum; details: 1,200 nM, vs untreated
Description: Red blood cells were lysed by 0.1% saponin in washing buffer (20 mM β-glycerophosphate, 1 tablet of cOmplete protease inhibitor cocktail (Roche), and 1 tablet of PhosSTOP phosphatase inhibitor (Roche) per 10 ml PBS). Parasites were subsequently washed three times in washing buffer. Parasite pellets were stored at -80°C until all samples from two independently repeated exposure experiments were collected. Proteins were extracted from schizont pellets by sonication and lysis in Tris-EDTA buffer (10 mM Tris-HCl, 5 mM EDTA, 20 mM ß-glycerolphosphate; pH 7.4, 1% NP-40, 2% CHAPS) followed by reduction of disulfide bonds and alkylation. Samples were digested with trypsin at a ratio of 1:15 (w/w) trypsin and proteins concentrated using S-trap columns (ProtiFi) for 1 h at 47°C. For tandem mass tag (TMT) labelling, digested samples were incubated with TMTsixplex reagents (Thermo Scientific). All labeled samples were pooled together, loaded onto an anion-exchange column, and fractionated on an AKTA purifier (GE Healthcare). The fractions were concentrated and phosphopeptides were enriched using titanium dioxide (TiO2) and immobilized metal affinity chromatography (IMAC). […] We also analyzed the peptide sequences for patterns that conformed to the previously established PfPKG consensus motif K/RR/KxpS/pT and the PfPKA consensus motif K/RxxpS/pT ([Francis et al., 2010]).

casein kinase 1δ = molecular target: T1, casein kinase 1δ (Homo sapiens, UniProt P48730); experiment: Chemoproteomics in human mixed tissue extracts; assay type: binding; details: read-out: Kdapp
T1 construct: human cell/tissue protein extract (a mixture of HEK-293, K-562, Hep G2 , and placental cells); endogenous in cells; host or cells: mixture of HEK-293, K-562, Hep G2 and placenta
Description: (§1) Human extracts were prepared as described ([Bantscheff et al., 2011]). Briefly, frozen cell pellets were homogenized in lysis buffer (50 mM Tris-HCl, 0.8% Igepal-CA630, 5% glycerol, 150 mM NaCl, 1.5 mM MgCl2, 25 mM sodium fluoride, 1 mM sodium vanadate, 1 mM DTT, pH 7.5). One cOmplete EDTA-free protease inhibitor tablet (Roche) was added per 25 ml. Samples were dispersed using a Dounce homogenizer, rotated for 30 min at 4°C, and centrifuged at 20,000g for 10 min at 4°C. Supernatants were then recentrifuged at 145,000g for 1 h at 4°C. Protein concentrations were determined using a Bradford assay (BioRad). Aliquots were snap frozen in liquid nitrogen and stored at −80°C.
(§2) Kinobeads were prepared by immobilizing Bis-(III) indolyl-maleimide, purvalanol B, staurosporine and CZC8004, and the analogs of PD173955, sunitinib and vandetanib on NHS-activated Sepharose 4 beads (Amersham) ([Bantscheff et al., 2007]). […] The chemoproteomic affinity-capturing experiments were performed as previously described ([Bantscheff et al., 2011]). Briefly, beads were washed and equilibrated in lysis buffer (50 mM Tris-HCl, pH 7.4, 0.4 % Igepal-CA630, 1.5 mM MgCl2, 5 % Glycerol, 150 mM NaCl, 25 mM NaF, 1 mM Na3VO4, 1 mM DTT, and one cOmplete EDTA-free protease inhibitor tablet (Roche) per 25 mL). The beads were incubated at 4°C for 1 h with either 0.1 ml (0.3 mg) Pf blood stage extract or 0.5 mL (2.5 mg) human cell/tissue protein extract (a mixture of HEK-293, K-562, Hep G2 , and placental cells), which was pre-incubated with compound or DMSO (vehicle control). 10 samples were measured in parallel (TMT 10-plex ([Werner et al., 2014])) to generate values for the affinity of the beads to the bound proteins (“depletion” values, 4 samples) and to generate IC50 values (6 samples) in a single experiment. Apparent dissociation constants were determined after accounting for protein depletion by the beads ([Bantscheff et al., 2011]). Beads were transferred to Filter plates (Durapore PVDF membrane, Merck Millipore), washed with lysis buffer, and eluted with SDS sample buffer.
(§3) Proteins were digested according to a modified single pot solid-phase sample preparation (SP3) protocol ([Hughes et al., 2014]). Peptides were labeled with isobaric mass tags (Thermo Fisher Scientific, Waltham, MA) using 10-plex TMT reagents, enabling relative quantification of 10 conditions in a single experiment ([Werner et al., 2014]). The labeling reactions and LC-MS/MS measurements using Q Exactive Orbitrap or Orbitrap Fusion Lumos mass spectrometers (Thermo Fisher Scientific) were performed as described elsewhere ([Sridharan et al., 2019]). Mascot 2.4 (Matrix Science, Boston, MA) was used for protein identification by using a 10 parts per million mass tolerance for peptide precursors and 20 mD (HCD) mass tolerance for fragment ions. To create the fasta file for mascot searching, all proteins corresponding to the taxonomy ‘Plasmodium falciparum (isolate 3D7)’ were downloaded from Uniprot (release 20170621) and supplemented with common contaminant protein sequences of bovine serum albumin, porcine trypsin and mouse, rat, sheep and dog keratins. To assess the false discovery rate (FDR), “decoy” proteins (reverse of all protein sequences) were created and added to the database, resulting in a database containing a total of 14266 protein sequences, with 50% forward and 50% reverse. For peptide and protein identification of human proteins see ([Sridharan et al., 2019]). Unless stated otherwise, we accepted protein identifications as follows: (i) For single-spectrum to sequence assignments, we required this assignment to be the best match and a minimum Mascot score of 31 and a 10× difference of this assignment over the next best assignment. Based on these criteria, the decoy search results indicated <1% false discovery rate (FDR). (ii) For multiple spectrum to sequence assignments and using the same parameters, the decoy search results indicated <0.1% FDR. […]

nemo-like kinase = molecular target: T2, nemo-like kinase (Homo sapiens, UniProt Q9UBE8); experiment: Chemoproteomics in human mixed tissue extracts; assay type: binding; details: read-out: Kdapp
T2 construct: human cell/tissue protein extract (a mixture of HEK-293, K-562, Hep G2 , and placental cells); endogenous in cells; host or cells: mixture of HEK-293, K-562, Hep G2 and placenta
Description: as §1, §2, §3

protein kinase N3 = molecular target: T3, protein kinase N3 (Homo sapiens, UniProt Q6P5Z2); experiment: Chemoproteomics in human mixed tissue extracts; assay type: binding; details: read-out: Kdapp
T3 construct: human cell/tissue protein extract (a mixture of HEK-293, K-562, Hep G2 , and placental cells); endogenous in cells; host or cells: mixture of HEK-293, K-562, Hep G2 and placenta
Description: as §1, §2, §3

[3] = molecular target: T4, receptor interacting serine/threonine kinase 2 (Homo sapiens, UniProt O43353); experiment: Chemoproteomics in human mixed tissue extracts; assay type: binding; details: read-out: Kdapp
T4 construct: human cell/tissue protein extract (a mixture of HEK-293, K-562, Hep G2 , and placental cells); endogenous in cells; host or cells: mixture of HEK-293, K-562, Hep G2 and placenta
Description: as §1, §2, §3

[4] = molecular target: T5, testis-associated actin remodeling kinase 2 (Homo sapiens, UniProt Q96S53); experiment: Chemoproteomics in human mixed tissue extracts; assay type: binding; details: read-out: Kdapp
T5 construct: human cell/tissue protein extract (a mixture of HEK-293, K-562, Hep G2 , and placental cells); endogenous in cells; host or cells: mixture of HEK-293, K-562, Hep G2 and placenta
Description: as §1, §2, §3

[5] = molecular target: T6, transforming growth factor β receptor 1 (Homo sapiens, UniProt P36897); experiment: Chemoproteomics in human mixed tissue extracts; assay type: binding; details: read-out: Kdapp
T6 construct: human cell/tissue protein extract (a mixture of HEK-293, K-562, Hep G2 , and placental cells); endogenous in cells; host or cells: mixture of HEK-293, K-562, Hep G2 and placenta
Description: as §1, §2, §3

[6] = molecular target: T7, transforming growth factor β receptor 2 (Homo sapiens, UniProt P37173); experiment: Chemoproteomics in human mixed tissue extracts; assay type: binding; details: read-out: Kdapp
T7 construct: human cell/tissue protein extract (a mixture of HEK-293, K-562, Hep G2 , and placental cells); endogenous in cells; host or cells: mixture of HEK-293, K-562, Hep G2 and placenta
Description: as §1, §2, §3

T6 sequence (P36897 34-503): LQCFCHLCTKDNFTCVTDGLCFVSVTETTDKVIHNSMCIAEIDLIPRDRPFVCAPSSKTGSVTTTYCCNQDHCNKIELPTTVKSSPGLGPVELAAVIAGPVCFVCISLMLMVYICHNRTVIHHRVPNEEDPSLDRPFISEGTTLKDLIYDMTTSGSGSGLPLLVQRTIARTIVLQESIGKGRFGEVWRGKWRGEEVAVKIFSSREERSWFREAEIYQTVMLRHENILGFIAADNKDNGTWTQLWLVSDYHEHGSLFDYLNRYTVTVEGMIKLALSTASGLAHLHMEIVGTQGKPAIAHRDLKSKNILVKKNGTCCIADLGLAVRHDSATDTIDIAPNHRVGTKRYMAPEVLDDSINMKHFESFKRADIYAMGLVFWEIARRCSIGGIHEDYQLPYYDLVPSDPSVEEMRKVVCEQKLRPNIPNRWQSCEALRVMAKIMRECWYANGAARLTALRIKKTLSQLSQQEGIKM
T1 sequence (P48730 whole entry): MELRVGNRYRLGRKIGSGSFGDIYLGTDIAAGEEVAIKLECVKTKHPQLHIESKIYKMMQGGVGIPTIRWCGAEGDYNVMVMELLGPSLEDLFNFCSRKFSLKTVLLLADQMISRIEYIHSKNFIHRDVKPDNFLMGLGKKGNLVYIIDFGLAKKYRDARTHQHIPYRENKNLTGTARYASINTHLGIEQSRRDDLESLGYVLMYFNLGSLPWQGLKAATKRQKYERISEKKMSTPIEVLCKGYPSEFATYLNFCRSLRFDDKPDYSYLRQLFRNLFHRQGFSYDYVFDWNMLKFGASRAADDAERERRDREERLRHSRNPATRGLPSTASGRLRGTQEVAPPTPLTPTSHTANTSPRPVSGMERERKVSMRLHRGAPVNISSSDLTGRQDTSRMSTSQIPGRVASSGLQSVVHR
T4 sequence (O43353 whole entry): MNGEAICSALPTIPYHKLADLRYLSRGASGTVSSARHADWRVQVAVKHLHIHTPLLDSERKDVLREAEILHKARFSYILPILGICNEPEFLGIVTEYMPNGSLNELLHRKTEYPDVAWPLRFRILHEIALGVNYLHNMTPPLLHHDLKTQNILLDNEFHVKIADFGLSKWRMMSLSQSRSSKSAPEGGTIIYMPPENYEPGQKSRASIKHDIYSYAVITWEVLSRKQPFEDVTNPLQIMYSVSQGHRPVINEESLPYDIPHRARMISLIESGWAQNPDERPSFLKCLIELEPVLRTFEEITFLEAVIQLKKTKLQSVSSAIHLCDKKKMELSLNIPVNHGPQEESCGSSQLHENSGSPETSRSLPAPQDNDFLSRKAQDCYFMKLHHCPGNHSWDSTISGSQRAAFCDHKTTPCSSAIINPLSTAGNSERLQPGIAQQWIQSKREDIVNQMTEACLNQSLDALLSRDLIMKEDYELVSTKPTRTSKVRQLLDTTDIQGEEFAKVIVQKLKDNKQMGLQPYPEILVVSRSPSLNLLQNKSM
T3 sequence (Q6P5Z2 whole entry): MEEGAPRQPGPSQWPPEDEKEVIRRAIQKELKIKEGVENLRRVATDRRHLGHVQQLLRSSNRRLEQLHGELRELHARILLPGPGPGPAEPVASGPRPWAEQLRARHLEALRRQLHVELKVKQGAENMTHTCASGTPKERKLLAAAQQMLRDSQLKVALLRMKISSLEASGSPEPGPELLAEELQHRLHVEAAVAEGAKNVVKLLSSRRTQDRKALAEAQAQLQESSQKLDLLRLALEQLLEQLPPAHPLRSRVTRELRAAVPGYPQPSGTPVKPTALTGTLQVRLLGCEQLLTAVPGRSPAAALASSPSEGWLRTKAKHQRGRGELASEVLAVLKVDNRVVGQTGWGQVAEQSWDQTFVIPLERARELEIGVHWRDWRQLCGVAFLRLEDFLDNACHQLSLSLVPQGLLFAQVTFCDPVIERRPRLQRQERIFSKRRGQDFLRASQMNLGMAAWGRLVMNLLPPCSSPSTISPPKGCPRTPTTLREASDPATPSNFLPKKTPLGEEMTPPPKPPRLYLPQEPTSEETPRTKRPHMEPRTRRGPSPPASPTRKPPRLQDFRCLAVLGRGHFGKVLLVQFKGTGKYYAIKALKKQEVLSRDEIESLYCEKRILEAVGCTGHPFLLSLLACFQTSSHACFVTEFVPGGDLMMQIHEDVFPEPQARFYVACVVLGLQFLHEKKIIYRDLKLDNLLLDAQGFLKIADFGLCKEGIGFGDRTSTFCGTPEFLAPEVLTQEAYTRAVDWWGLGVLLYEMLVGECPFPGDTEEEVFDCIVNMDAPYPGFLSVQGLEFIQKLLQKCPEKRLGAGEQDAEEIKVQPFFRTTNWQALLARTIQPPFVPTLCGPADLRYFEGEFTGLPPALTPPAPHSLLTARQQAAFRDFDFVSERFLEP
T2 sequence (Q9UBE8 whole entry): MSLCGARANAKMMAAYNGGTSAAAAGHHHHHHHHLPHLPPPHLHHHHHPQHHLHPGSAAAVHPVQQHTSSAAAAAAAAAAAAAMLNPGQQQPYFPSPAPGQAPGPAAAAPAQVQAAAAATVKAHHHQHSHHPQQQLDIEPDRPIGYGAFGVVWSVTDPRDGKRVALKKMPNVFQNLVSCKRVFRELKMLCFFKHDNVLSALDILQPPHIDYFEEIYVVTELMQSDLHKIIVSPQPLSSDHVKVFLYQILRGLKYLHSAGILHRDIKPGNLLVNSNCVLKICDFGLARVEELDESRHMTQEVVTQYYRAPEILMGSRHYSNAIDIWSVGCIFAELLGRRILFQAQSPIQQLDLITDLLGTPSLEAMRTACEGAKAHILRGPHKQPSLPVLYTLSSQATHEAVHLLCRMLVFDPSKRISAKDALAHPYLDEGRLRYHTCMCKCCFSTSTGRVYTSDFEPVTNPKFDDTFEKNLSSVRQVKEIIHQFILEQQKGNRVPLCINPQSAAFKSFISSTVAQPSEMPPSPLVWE
T7 sequence (P37173 23-567): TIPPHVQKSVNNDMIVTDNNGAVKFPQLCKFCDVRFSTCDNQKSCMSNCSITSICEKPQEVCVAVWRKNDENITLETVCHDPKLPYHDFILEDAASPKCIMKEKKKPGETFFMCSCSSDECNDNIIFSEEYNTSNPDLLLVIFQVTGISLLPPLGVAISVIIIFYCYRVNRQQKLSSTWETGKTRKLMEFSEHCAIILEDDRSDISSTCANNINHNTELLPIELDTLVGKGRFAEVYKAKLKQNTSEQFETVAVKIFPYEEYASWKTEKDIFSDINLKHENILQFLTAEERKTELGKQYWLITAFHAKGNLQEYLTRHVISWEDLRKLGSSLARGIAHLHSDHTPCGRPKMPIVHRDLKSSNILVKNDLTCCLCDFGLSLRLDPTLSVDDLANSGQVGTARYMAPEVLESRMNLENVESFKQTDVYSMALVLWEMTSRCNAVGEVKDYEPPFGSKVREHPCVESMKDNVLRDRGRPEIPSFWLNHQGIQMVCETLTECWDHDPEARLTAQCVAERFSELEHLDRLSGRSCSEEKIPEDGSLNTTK
T5 sequence (Q96S53 whole entry): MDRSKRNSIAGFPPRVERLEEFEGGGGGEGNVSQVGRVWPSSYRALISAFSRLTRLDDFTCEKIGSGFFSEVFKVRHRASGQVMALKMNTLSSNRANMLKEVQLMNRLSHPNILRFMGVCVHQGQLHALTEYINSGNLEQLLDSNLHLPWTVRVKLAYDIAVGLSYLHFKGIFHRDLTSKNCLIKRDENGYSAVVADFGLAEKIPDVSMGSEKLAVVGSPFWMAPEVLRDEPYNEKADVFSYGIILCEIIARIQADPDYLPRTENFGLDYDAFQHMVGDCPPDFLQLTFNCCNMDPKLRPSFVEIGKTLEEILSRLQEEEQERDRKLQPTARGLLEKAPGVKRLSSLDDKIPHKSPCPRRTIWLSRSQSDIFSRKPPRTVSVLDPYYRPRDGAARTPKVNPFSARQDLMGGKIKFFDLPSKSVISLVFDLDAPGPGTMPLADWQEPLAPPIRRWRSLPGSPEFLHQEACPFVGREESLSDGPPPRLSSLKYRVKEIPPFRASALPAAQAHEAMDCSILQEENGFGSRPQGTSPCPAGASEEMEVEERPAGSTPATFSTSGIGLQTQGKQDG

SMILES: CC(C)(CN)c1nc(-c2ccc(Cl)c(O)c2)c(-c2ccncc2)[nH]1 [MMV030084]
- IC50 ([1]; DD2, Line sel. Dd2-B2 TKL3KO + PP1H237D): 621 nM
- IC50 ([1]; DD2, Line sel. Dd2-B2 TKL3KO + PP1V249L): 549 nM
- IC50 ([1]; DD2, Line sel. Dd2-B2 TKL3KO + URPE20*): 819 nM
- Number of proteins with increased phosphorylation levels [2]: 15
- Number of proteins with phosphorylation status reduced by more than 35% [2]: 16
- Kd (casein kinase 1δ): 95 nM
- Kd (nemo-like kinase): 20 nM
- Kd (protein kinase N3): 8.5 nM
- Kd [3]: 4.5 nM
- Kd [4]: 25 nM
- Kd [5]: 20 nM
- Kd [6]: 35 nM
